Test results: PMC6994673, “Metabolism of multiple glycosaminoglycans by Bacteroides thetaiotaomicron is orchestrated by a versatile core genetic locus” (Nature Communications, 2020)

Biological target: T1, BT3349-S1_27^4S-sulf (Bacteroides thetaiotaomicron, UniProt Q8A2F6)
T1 construct: gene BT_3349; pET28a, N- or C-terminal His6, E. coli; Talon and size exclusion; periplasmic, SpII signal peptide
T1 sequence (Q8A2F6 13-508): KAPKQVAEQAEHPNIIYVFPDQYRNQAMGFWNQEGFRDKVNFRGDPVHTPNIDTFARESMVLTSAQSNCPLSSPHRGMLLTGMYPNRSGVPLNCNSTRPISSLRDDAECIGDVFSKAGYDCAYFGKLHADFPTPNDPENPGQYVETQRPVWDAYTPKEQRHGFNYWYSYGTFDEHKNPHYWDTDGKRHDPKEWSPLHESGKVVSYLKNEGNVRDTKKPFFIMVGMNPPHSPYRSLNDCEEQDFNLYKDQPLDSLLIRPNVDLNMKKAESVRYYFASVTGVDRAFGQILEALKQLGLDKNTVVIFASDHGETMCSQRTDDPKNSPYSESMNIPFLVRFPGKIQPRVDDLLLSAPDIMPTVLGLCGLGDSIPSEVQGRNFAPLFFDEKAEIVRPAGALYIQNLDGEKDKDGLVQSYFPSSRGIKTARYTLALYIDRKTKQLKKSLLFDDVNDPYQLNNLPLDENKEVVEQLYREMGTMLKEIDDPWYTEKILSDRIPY
Assay: continuous linked assay with GH88, loss of absorbance at […] nm
Type: biochemical
Details: 50 mM MES pH 6.0 or Bis-Tris propane pH 6.5, 150 mM NaCl, 37 °C; kinetic parameters only in supplement, kind not told

With CC(=O)N[C@H]1C(O)O[C@H](CO)[C@H](OS(=O)(=O)O)[C@@H]1O[C@@H]1OC(C(=O)O)=C[C@H](O)[C@H]1O (stereo partly shown) [Δ4,5UA-GalNAc4S] the kinetic parameters was “monitored via a continuous linked assay using BT3334^GH88 and UA-GalNAc4S as the substrate”.
